This note sets out measurements from US20200155575A1, “PHARMACEUTICAL COMPOSITION AND METHODS” (priority 2014, published 2020).

Molecules are shown by their SMILES.

A short description of this series: Solubility in pharmaceutically acceptable carriers/excipients. In kind it is physicochemical. The procedure:
The solubility of (8R,9S,10R,13S,14S,17S)-10,13-dimethyl-3-oxo-1,2,6,7,8,9,11,12,14,15,16,17-dodecahydrocyclopenta[a]phenanthren-17-yl tridecanoate was determined in the solvents (typical pharmaceutical carriers) listed below.

Take `CCCCCCCCCCCCC(=O)O[C@H]1CC[C@H]2[C@@H]3CCC4=CC(=O)CC[C@]4(C)[C@H]3CC[C@]12C` [testosterone tridecanoate, (8R,9S,10R,13S,14S,17S)-10,13-dimethyl-3-oxo-1,2,6,7,8,9,11,12,14,15,16,17-dodecahydrocyclopenta[a]phenanthren-17-yl tridecanoate]: the “Solubility mg/g at ~20-23° C.” value worked out at 322 mg/g (solvent Benzyl Alcohol); 223 mg/g (solvent Benzyl Benzoate); 55 mg/g (solvent Castor Oil); 77 mg/g (solvent Corn glycerides -Maisine); 35 mg/g (solvent Corn oil); 10 mg/g (solvent Cremophor RH40). The “Solubility mg/g at ~20-23° C.” value is listed as 27 mg/g (solvent Ethanol); 114 mg/g (solvent Fatty Acid -Oleic acid); 68 mg/g (solvent Medium chain glycerides-Capmul); 38 mg/g (solvent Olive Oil); about 200 mg/g (solvent Peppermint Oil).
